# Patent US20030212014A1 (priority 2000, published 2003)
# How the values were obtained:
# high-fat fed (HFF) rats [1] = test: Euglycemic hyperinsulinemic clamp in HFF rats 24 h after AICAR injection; type: in vivo, rat
# Protocol: They were then returned to their cages and given a high-fat meal. […] To avoid the possible effects of a reduced caloric intake, the HFF-Con animals were pair-fed with HFF-AIC rats. 24 h after the injection, and after a 5-7 h fasting period, the rats were submitted to an euglycemic hyperinsulinemic clamp, to determine the whole body insulin sensitivity.
# caspase-3 = test: Caspase-3 activity in HUVEC incubated with 30 mM glucose; type: cell-based, human; conditions: 30 mM glucose + AICAR, 24 hr
# Source text: A similar effect was observed when AMPK activity was increased by infecting HUVEC with constitutively active AMPK using an adenoviral vector (FIG. 9C).
# [2] = test system: liver ACC activity and malonyl CoA; test: ACC activity and malonyl CoA in liver two hours after AICAR injection; type: in vivo, rat
# high-fat fed (HFF) rats [3] = test: Acute effects of a single AICAR injection in high-fat fed (HFF) rats; type: in vivo, rat
# Protocol: Plasma parameters: This experiment was performed on HFF rats under conscious conditions following 5-7 hours of fasting. After catheters were connected to blood sampling syringes, the animals were allowed to rest for 40-50 min. Two blood samples were taken 20 min. apart, constituting the basal samples (time 0). […] Blood samples were collected at 30, 60, 90 and 120 min. after the injection. After the last sample was taken, the animals were euthanized. […] Tissue parameters: The glycogen and triglyceride content of two types of skeletal muscle and liver at the end of the experiment were determined (Table 9, FIG. 27).
# [4] = test system: acetyl CoA carboxylase (ACC); test: Acetyl CoA carboxylase activity in HUVEC incubated with AICAR; type: cell-based, human; conditions: 2 mM AICAR
# Protocol: As previously mentioned, AMPK increases fatty acid oxidation in both liver and skeletal muscle by phosphorylation and inhibition of acetyl CoA carboxylase. We wanted to test if this effect of AMPK is also present in endothelial cells. […] A significant decrease was seen within the first 30 minutes of incubation (FIG. 3). ACC activity went down from 163.1±27.0 pmol/min/mg protein at 0 minutes to 61.1±1.1 at 30 minutes (P=0.004), 73.0 ±12.4 at 60 minutes and 51.2±5.0 at 120 minutes (P=0.015). As previously described, ACC activation increases malonyl CoA levels and this in turn inhibits CPT1, the enzyme responsible for the uptake of long chain fatty acyl CoA into the mitochondria where they are oxidized. […] Fatty acid oxidation was measured by the formation of titrated water (^3H2O) in cells incubated with ^3H-palmitate. A significant increase was seen only after a 2-hour incubation (P=0.002). […] (See Table 1A, FIG. 6.) Glucose and fatty acid oxidation, glucose uptake and lactate and pyruvate release were determined in the absence and presence of […] carnitine.
# The results described in other tissues are seen in the endothelial cells. […] The presence of ACC is shown by the substantial increase in enzyme activity when 10 mM citrate is present vs. 0 mM citrate. Citrate allosterically activates ACC, but not other enzymes, such as propionyl CoA carboxylase and pyruvate carboxylase, which could also use HCO3^−as substrate. Thus, the increase in radioactive HCO3^−use in the presence of citrate is a reflection of ACC activity only. Similar to AMPK, the activity of ACC is lower in endothelial cells than in skeletal muscle and liver.
# [5] = test system: AMP-activated protein kinase (AMPK); test: AMP-activated protein kinase activity in HUVEC incubated with AICAR; type: cell-based, human
# Protocol: The enzyme was assayed in a reaction mixture containing either no AMP or 0.2 mM 5′-AMP. The difference in the activity is the AMP-activated kinase activity. […] This indicates the presence of AMPK and AMPKK in HUVEC.
# One of the major ATP users, the Na^+/K^+pump, was investigated. The activity of this pump was tested by measuring the uptake of radioactive rubidium in the absence and presence of ouabain, an Na^+/K^+pump inhibitor. The difference in uptake, which is referred to as ouabain-sensitive Rb^+uptake, is the Na^+/K^+pump activity. […] When the ouabain sensitive component was calculated, no ,difference was seen between the two incubations, (2.11±0.9 and 3.3±0.9 pmol/min/mg protein), thus leading us to believe that no change in Na^+/K^+pump activity had occurred. […] The AMPK activity remained high with a longer incubation time up to 120 minutes.
# HUVEC [6] = test: Hyperglycemia-induced apoptosis in HUVEC (TUNEL); type: cell-based, human; conditions: 30 mM glucose + 1 mM AICAR
# Protocol: (A) Typical TUNEL staining (dark brown) with methylene blue counter-staining. TUNEL positive cells show a typical apoptotic configuration with shrinkage and nuclear fragmentation. […] The percentage of TUNEL positive cells was determined in 3 wells of 6 well plates (24 hr) or in eight of 60 mm dishes. Data are means ±SD.*p<0.05; vs 5 mM glucose. † p<0.05; vs 30 mM glucose alone;
# [7] = test system: human and bovine retinal pericytes; test: Palmitate-induced apoptosis in retinal pericytes (TUNEL staining); type: cell-based
# Protocol: Apoptosis was induced by incubating the cells with a medium containing 0-0.5 mM palmitic acid for 3 days. Apoptotic cells were determined by conventional TUNEL staining. Ceramide and DAG levels were measured the by diacylgycerol kinase method using 32P-ATP.
# HUVEC [8] = test: Serine incorporation into ceramide in HUVEC; type: cell-based, human; conditions: 30 mM glucose + AICAR, 24 hr
# Protocol: To assess whether alterations in ceramide contributed to these events, and particularly the decrease in membrane potential, we attempted to measure ceramide content. Ceramide was not detectable in HUVEC incubated with either 5 or 30 mM glucose. […] Consistent with these findings, we found no increase in serine incorporation into ceramide, (presumably a measure of de novo synthesis) in cells incubated for 24 hr in 30 vs 5 mM glucose.
# [9] = clamp 24 h after 250 mg/kg AICAR
# [10] = HFF rats, 250 mg/kg s.c., vs HFF-Con
compound,measurement,setting,value
"NC(=O)c1ncn([C@@H]2O[C@H](CO)[C@@H](O)[C@H]2O)c1N [AICAR, 5-aminoimidizole-4-carboxamide riboside]",levels of muscle triglycerides or long chain fatty acyl CoA (LCFACoA),high-fat fed (HFF) rats [1]; after clamp,no significant change
same,decrease in liver malonyl-CoA,"high-fat fed (HFF) rats [1]; after clamp, vs HFF-Con",21%
same,reduction of liver triglycerides accumulation,"high-fat fed (HFF) rats [1]; after clamp, vs HFF-Con",33%
same,food eaten overnight,"high-fat fed (HFF) rats [1]; after single 250 mg/kg s.c. injection, high-fat meal",minor reduction
same,reduction of malonyl-CoA in red muscle,"high-fat fed (HFF) rats [1]; after the clamp, vs HFF-Con",44%
same,basal plasma glucose (hyperglycemia caused by high-fat feeding),"high-fat fed (HFF) rats [1]; basal state, 24 h after AICAR",decreased the hyperglycemia
same,"other basal plasma parameters (insulin, FFA, triglycerides)","high-fat fed (HFF) rats [1]; basal state, vs HFF-Con",did not alter
same,Rd,high-fat fed (HFF) rats [1]; [9],slight but not significant increase
same,increase in glucose infusion rate (GIR),high-fat fed (HFF) rats [1]; [9],50%
same,HGO under insulin,"high-fat fed (HFF) rats [1]; clamp 24 h after 250 mg/kg AICAR, p>0.05 vs. Chow",close to the normal value
same,increase in Rg' (rate of glucose uptake) in white muscle,high-fat fed (HFF) rats [1]; clamp 24 h after AICAR,79%
same,Rg' in red muscle,"high-fat fed (HFF) rats [1]; clamp 24 h after AICAR, p=0.085",tendency of increased
same,insulin-stimulated glucose incorporation into glycogen,high-fat fed (HFF) rats [1]; white and red muscle,significantly increased
same,caspase-3 activity,caspase-3,833±14 arbitrary unit
same,dose at which maximal effect on liver ACC activity and malonyl CoA was observed,[2],500 mg/kg
same,ACC activity in liver,[2]; 250 mg/kg,significantly diminished
same,malonyl CoA concentration in liver,[2]; 250 mg/kg,significantly diminished
same,changes in tissue triglyceride content,high-fat fed (HFF) rats [3]; 2 h after the injection,not significant
same,increase in glycogen content in white muscle,high-fat fed (HFF) rats [3]; 2 h after the injection,16%
same,reduction in liver glycogen,high-fat fed (HFF) rats [3]; 2 h after the injection,52%
same,duration of decrease in plasma glucose,"high-fat fed (HFF) rats [3]; HFF rats, 250 mg/kg s.c.",at least 60 minutes
same,plasma FFA,"high-fat fed (HFF) rats [3]; HFF rats, 250 mg/kg s.c.",remained unchanged
same,time to decrease in plasma glucose,"high-fat fed (HFF) rats [3]; HFF rats, 250 mg/kg s.c.",≤ 30 min
same,plasma glucose,"high-fat fed (HFF) rats [3]; HFF rats, 250 mg/kg s.c., 30-120 min post-injection",decrease
same,plasma glycerol,high-fat fed (HFF) rats [3]; [10],increase
same,plasma triglyceride levels,high-fat fed (HFF) rats [3]; [10],decrease
same,plasma insulin,"high-fat fed (HFF) rats [3]; HFF rats, 250 mg/kg s.c., vs saline",decrease
same,ACC activity,[4]; at 30 minutes,61.1±1.1 pmol/min/mg protein
same,ACC activity,[4]; at 60 minutes,73.0 ±12.4 pmol/min/mg protein
same,ACC activity,[4]; at 120 minutes,51.2±5.0 pmol/min/mg protein
same,AMP-activated kinase activity,"[5]; 0.2 mM AICAR, 30 minutes, HUVEC",15.8±0.4 pmol/min/mg protein
same,AMP-activated kinase activity,"[5]; 0.5 mM AICAR, 30 minutes, HUVEC",22.5±0.3 pmol/min/mg protein
same,AMP-activated kinase activity,"[5]; 2 mM AICAR, 30 minutes, HUVEC (concentration series)",30.9±0.2 pmol/min/mg protein
same,AMP-activated kinase activity,"[5]; 2 mM AICAR, at 30 minutes (time course)",30.8 pmol/min/mg protein
same,AMP-activated kinase activity,"[5]; 2 mM AICAR, at 60 minutes (time course)",31.5 pmol/min/mg protein
same,AMP-activated kinase activity,"[5]; 2 mM AICAR, at 120 minutes (time course)",32.3 pmol/min/mg protein
same,apoptotic rate (TUNEL-positive cells),HUVEC [6]; 24 hours,no affect
same,increase in apoptosis caused by hyperglycemia,HUVEC [6]; 72 hours,completely prevented
same,apoptotic cells (TUNEL),"[7]; 0.5 mM palmitate + 1 mM AICAR, 3 days",10±2%
same,decrease in apoptosis,[7]; 1 mM AICAR vs 0.5 mM palmitate alone,50%
same,serine incorporation into ceramide,HUVEC [8],9.0±1.2
